The values that follow come from article PMC11575720 (RSC Advances, 2024).

For one assay, the target named is L. major DHFR (Leishmania major, UniProt P07382). In words: L. major DHFR. It is filed as biochemical.
The next assay deals with T1, L. major PTR1 (Leishmania major, UniProt Q01782).
T1 sequence (Q01782 1-288): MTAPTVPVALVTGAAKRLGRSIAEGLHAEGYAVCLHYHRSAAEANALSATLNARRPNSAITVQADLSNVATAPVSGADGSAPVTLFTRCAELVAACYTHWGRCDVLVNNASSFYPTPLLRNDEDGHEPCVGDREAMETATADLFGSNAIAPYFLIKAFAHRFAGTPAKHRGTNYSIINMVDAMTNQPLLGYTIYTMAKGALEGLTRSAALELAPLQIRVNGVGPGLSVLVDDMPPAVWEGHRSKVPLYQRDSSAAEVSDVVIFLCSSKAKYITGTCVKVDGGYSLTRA
In words: L. major PTR1 enzyme inhibition assay. The class given is biochemical.

Sequence of L. major DHFR (P07382 whole entry): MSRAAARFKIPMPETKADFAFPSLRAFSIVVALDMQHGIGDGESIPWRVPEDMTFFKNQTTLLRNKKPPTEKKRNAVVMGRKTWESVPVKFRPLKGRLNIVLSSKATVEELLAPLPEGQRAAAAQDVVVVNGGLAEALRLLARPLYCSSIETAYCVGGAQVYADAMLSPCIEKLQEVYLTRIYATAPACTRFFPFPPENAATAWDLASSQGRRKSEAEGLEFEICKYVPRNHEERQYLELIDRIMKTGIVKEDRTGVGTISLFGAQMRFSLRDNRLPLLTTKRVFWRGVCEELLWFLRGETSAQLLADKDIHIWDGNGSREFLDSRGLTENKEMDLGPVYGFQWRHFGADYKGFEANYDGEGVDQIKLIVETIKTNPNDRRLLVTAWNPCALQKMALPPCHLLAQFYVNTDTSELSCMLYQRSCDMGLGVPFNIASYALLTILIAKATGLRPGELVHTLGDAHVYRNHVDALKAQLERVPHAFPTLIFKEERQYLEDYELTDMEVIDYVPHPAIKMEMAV

Usually IC50 stands for the concentration that gives 50% inhibition. In the case of `O=C(NC(=S)Nc1cccc(O)c1)c1cccs1` [Compound 4g, N-((3-Hydroxyphenyl)carbamothioyl)thiophene-2-carboxamide], the figures for the IC50 at L. major DHFR and at L. major PTR1 were 8.09 ± 0.01 µM and 0.58 ± 0.05 µM, respectively.
For the compound `Cc1nc(NC(=S)NCc2ccco2)nc(-c2ccccc2)c1C(=O)N1CCC(C(=O)O)CC1` [Compound 20a, 1-(2-(3-(Furan-2-ylmethyl)thioureido)-4-methyl-6-phenylpyrimidine-5-carbonyl)piperidine-4-carboxylic acid], the IC50 against L. major DHFR was found to be 2.63 ± 0.01 µM; on L. major PTR1 it was 15.86 ± 0.01 µM.
For the compound `Cc1nc(NC(=S)NCc2cccs2)nc(-c2ccccc2)c1C(=O)N1CCC(C(=O)O)CC1` [Compound 20b, 1-(4-Methyl-6-phenyl-2-(3-(thiophen-2-ylmethyl)thioureido)pyrimidine-5-carbonyl)piperidine-4-carboxylic acid], the IC50 against L. major DHFR came to 1.14 ± 0.01 µM; at L. major PTR1 it was 19.89 ± 0.01 µM.
